Experiment [1] has as its target T1, human mTOR (Homo sapiens, UniProt P42345).
T1 construct: the portion corresponding to 1362-2549aa at the C terminus of human mTOR; made in house
The experiment in a line: mTOR Kinase Activity Inhibition Test. The experiment is classed as biochemical. As to conditions: His-tagged mTOR (1362C), biotinylated peptide substrate, ATP, 3 hours at room temperature, fluorescence resonance energy transfer 665 nm/620 nm; read-out: IC50 value of mTOR enzyme inhibitory activity. In outline:
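Purified His-tagged human mTOR (1362–2549aa, from HEK293) was used with biotinylated peptide (8 μg/mL in enzyme solution) in HEPES pH 7.5 with 20 mM MnCl2. Compounds were diluted in 20 μM ATP solution, and the reaction ran 3 h at RT. Phospho-S6K(Thr389) HTRF was read as the 665/620 nm ratio, and IC50 came from % inhibition versus controls.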

Experiment [2] deals with WM-266-4 cells. Put plainly: Cell Proliferation Inhibitory Test. Type of experiment: cell-based. As to conditions: Homo sapiens, 72 h, cultured three days with test compound, MTT, read-out: 50% cell proliferation inhibitory activity (GI50 value). The method, boiled down: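 Cells cultured overnight, then exposed to serially diluted compound for three days; cell amount read by MTT. GI50 solved from 100×[(T−T0)/(C−T0)]=50, with T0 the value at time of compound addition and C the untreated three-day control.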

T1 sequence (P42345 1362-2549): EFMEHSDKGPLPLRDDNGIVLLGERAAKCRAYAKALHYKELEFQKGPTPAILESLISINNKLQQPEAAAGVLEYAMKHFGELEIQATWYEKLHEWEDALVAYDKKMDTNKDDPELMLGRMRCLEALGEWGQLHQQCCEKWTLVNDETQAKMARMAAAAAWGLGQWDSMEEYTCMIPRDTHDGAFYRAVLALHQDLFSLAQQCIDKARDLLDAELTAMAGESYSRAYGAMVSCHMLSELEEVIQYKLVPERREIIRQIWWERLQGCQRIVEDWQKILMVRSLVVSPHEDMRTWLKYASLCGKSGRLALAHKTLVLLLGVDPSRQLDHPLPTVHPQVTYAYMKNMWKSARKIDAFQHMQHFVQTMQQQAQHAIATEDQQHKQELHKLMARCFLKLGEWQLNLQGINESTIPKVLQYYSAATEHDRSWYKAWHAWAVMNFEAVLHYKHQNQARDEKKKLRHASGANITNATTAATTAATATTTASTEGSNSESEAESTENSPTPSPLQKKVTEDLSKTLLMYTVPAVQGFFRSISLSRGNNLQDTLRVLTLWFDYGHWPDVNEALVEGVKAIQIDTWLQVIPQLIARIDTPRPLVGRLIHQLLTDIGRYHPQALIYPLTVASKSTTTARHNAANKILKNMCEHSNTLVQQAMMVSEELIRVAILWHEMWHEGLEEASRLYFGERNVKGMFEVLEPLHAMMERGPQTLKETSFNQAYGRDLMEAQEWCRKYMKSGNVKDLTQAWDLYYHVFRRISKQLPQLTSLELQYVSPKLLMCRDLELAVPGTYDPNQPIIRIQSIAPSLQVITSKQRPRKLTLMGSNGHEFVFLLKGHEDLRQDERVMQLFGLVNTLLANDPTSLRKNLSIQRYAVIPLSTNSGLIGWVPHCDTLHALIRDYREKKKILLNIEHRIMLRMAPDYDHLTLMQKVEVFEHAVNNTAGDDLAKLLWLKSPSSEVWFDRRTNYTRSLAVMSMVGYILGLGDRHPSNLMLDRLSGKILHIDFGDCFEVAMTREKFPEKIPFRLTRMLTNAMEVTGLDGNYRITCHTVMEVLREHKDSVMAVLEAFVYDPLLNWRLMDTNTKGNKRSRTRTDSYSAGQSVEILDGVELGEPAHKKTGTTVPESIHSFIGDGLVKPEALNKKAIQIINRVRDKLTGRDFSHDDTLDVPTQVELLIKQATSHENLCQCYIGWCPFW

In general, IC50 refers to the concentration at which inhibition is half-maximal. As for `Cc1nc2[nH]c(=O)n(CC3CCOCC3)c2cc1-c1cnc2[nH]ccc2c1` [Example 17, 5-Methyl-6-(1H-pyrrolo[2,3-b]pyridin-5-yl)-1-(tetrahydro-2H-pyran-4-ylmethyl)-1,3-dihydro-2H-imidazo[4,5-b]pyridin-2-one], the half-maximal inhibitory concentration (IC50) in experiment [1] was less than 50 nM. Further, the GI50 in experiment [2] was less than 3000 nM.

As to `O=c1[nH]c2ncc(-c3cnc4[nH]ccc4c3)cc2n1C[C@H]1COCCO1` [Example 40, 1-[(2S)-1,4-Dioxan-2-ylmethyl]-6-(1H-pyrrolo[2,3-b]pyridin-5-yl)-1,3-dihydro-2H-imidazo[4,5-b]pyridin-2-one], the IC50 in experiment [1] was less than 50 nM. In addition, the GI50 in experiment [2] was less than 3000 nM.

Consider `Cc1c(-c2cnc3[nH]ccc3c2)cnc2[nH]c(=O)n(CC3CCOCC3)c12` [Example 18, 7-Methyl-6-(1H-pyrrolo[2,3-b]pyridin-5-yl)-1-(tetrahydro-2H-pyran-4-ylmethyl)-1,3-dihydro-2H-imidazo[4,5-b]pyridin-2-one], for which, in experiment [1], the IC50 was less than 50 nM. In addition, the GI50 in experiment [2] was less than 3000 nM.

Turning to `O=c1[nH]c2ncc(-c3ccc4[nH]ccc4c3)cc2n1CC1CCOCC1` [Example 4, 6-(1H-Indol-5-yl)-1-(tetrahydro-2H-pyran-4-ylmethyl)-1,3-dihydro-2H-imidazo[4,5-b]pyridin-2-one], the IC50 in experiment [1] is less than 50 nM. Besides, the GI50 in experiment [2] was less than 3000 nM.

`N#Cc1c(-c2cnc3[nH]c(=O)n(CC4CCOCC4)c3c2)cnc2[nH]ccc12` [Example 91, 5-[2-Oxo-1-(tetrahydro-2H-pyran-4-ylmethyl)-2,3-dihydro-1H-imidazo[4,5-b]pyridin-6-yl]-1H-pyrrolo[2,3-b]pyridine-4-carbonitrile]: the IC50 in experiment [1] lay in the range of 100 to 5000 nM. In addition, the GI50 in experiment [2] was less than 3000 nM.

As to `O=c1[nH]c2ncc(-c3cnc4ccccc4c3)cc2n1CC1CCOCC1` [Example 5, 6-Quinolin-3-yl-1-(tetrahydro-2H-pyran-4-ylmethyl)-1,3-dihydro-2H-imidazo[4,5-b]pyridin-2-one], the IC50 in experiment [1] is less than 50 nM. The GI50 in experiment [2] was less than 3000 nM.

For `CO[C@@H]1CC[C@H](Cn2c(=O)[nH]c3ncc(-c4cnc5[nH]cc(Cl)c5c4C)cc32)OC1` [Example 148, 2,6-Anhydro-1-[6-(3-chloro-4-methyl-1H-pyrrolo[2,3-b]pyridin-5-yl)-2-oxo-2,3-dihydro-1H-imidazo[4,5-b]pyridin-1-yl]-1,3,4-trideoxy-5-O-methyl-L-threo-hexitol], the IC50 in experiment [1] is less than 50 nM. For the same compound, the GI50 in experiment [2] is less than 3000 nM.

Turning to `CN1CCN(CCn2c(=O)[nH]c3ncc(-c4cnc5[nH]ccc5c4)cc32)CC1` [Example 58, 1-[2-(4-Methylpiperazin-1-yl)ethyl]-6-(1H-pyrrolo[2,3-b]pyridin-5-yl)-1,3-dihydro-2H-imidazo[4,5-b]pyridin-2-one], the IC50 in experiment [1] is less than 50 nM. For the same compound, the GI50 in experiment [2] was less than 3000 nM.

For the compound `O=c1[nH]c2ncc(-c3cnc4[nH]cc(F)c4c3)cc2n1C[C@H]1COCCO1` [Example 118, 1-[(2S)-1,4-Dioxan-2-ylmethyl]-6-(3-fluoro-1H-pyrrolo[2,3-b]pyridin-5-yl)-1,3-dihydro-2H-imidazo[4,5-b]pyridin-2-one], the IC50 in experiment [1] is less than 50 nM. Besides, in experiment [2], the GI50 was less than 3000 nM.

`CC1(C)CC(Cn2c(=O)[nH]c3ncc(-c4cnc5[nH]ccc5c4)cc32)CCO1` (racemic) [Example 70, 1-[(2,2-Dimethyltetrahydro-2H-pyran-4-yl)methyl]-6-(1H-pyrrolo[2,3-b]pyridin-5-yl)-1,3-dihydro-2H-imidazo[4,5-b]pyridin-2-one]: the IC50 in experiment [1] was less than 50 nM. For the same compound, the GI50 in experiment [2] was less than 3000 nM.

On to `Cc1c[nH]c2ncc(-c3cnc4[nH]c(=O)n(C[C@H]5CC[C@@H](O)CO5)c4c3)c(C)c12` [Example 144, 2,6-Anhydro-1,3,4-trideoxy-1-[6-(3,4-dimethyl-1H-pyrrolo[2,3-b]pyridin-5-yl)-2-oxo-2,3-dihydro-1H-imidazo[4,5-b]pyridin-1-yl]-L-threo-hexitol], for which the IC50 in experiment [1] was less than 50 nM. For the same compound, the GI50 in experiment [2] was less than 3000 nM.

As to `O=c1[nH]c2ncc(-c3cnc4c(c3)CCN4)cc2n1C[C@H]1COCCO1` [Example 121, 6-(2,3-Dihydro-1H-pyrrolo[2,3-b]pyridin-5-yl)-1-[(2S)-1,4-dioxan-2-ylmethyl]-1,3-dihydro-2H-imidazo[4,5-b]pyridin-2-one], the IC50 in experiment [1] is less than 50 nM. The GI50 in experiment [2] was less than 3000 nM.

On to `O=c1[nH]c2ncc(-c3cnc4[nH]ccc4c3)cc2n1C[C@@H]1COC[C@H]1O` (racemic) [Example 61], for which, in experiment [1], the IC50 is less than 50 nM. Also, the GI50 in experiment [2] is less than 3000 nM.

For `COCC1COC[C@H](Cn2c(=O)[nH]c3ncc(-c4cnc5[nH]ccc5c4C)cc32)O1` (stereo partly drawn) [Example 153, 1-{[(2S)-6-(Methoxymethyl)-1,4-dioxan-2-yl]methyl}-6-(4-methyl-1H-pyrrolo[2,3-b]pyridin-5-yl)-1,3-dihydro-2H-imidazo[4,5-b]pyridin-2-one], in experiment [1], the IC50 was less than 50 nM. Moreover, the GI50 in experiment [2] is less than 3000 nM.

As to `O=c1[nH]c2ncc(-c3ccc4[nH]ccc4n3)cc2n1CC1CCOCC1` [Example 82, 6-(1H-Pyrrolo[3,2-b]pyridin-5-yl)-1-(tetrahydro-2H-pyran-4-ylmethyl)-1,3-dihydro-2H-imidazo[4,5-b]pyridin-2-one], in experiment [1], the IC50 is less than 50 nM. Also, the GI50 in experiment [2] is less than 3000 nM.

For `O=c1[nH]c2ncc(-c3cnc4[nH]ccc4c3)cc2n1C[C@@H]1COC[C@@H]1O` (racemic) [Example 62], in experiment [1], the IC50 is less than 50 nM. Further, in experiment [2], the GI50 is less than 3000 nM.

Turning to `CO[C@H]1CC[C@@H](Cn2c(=O)[nH]c3ncc(-c4cnc5[nH]cc(Cl)c5c4)cc32)CC1` [Example 115, 6-(3-Chloro-1H-pyrrolo[2,3-b]pyridin-5-yl)-1-[(cis-4-methoxycyclohexyl)methyl]-1,3-dihydro-2H-imidazo[4,5-b]pyridin-2-one], in experiment [1], the IC50 was less than 50 nM. The GI50 in experiment [2] is less than 3000 nM.

`O=c1[nH]c2ncc(-c3cnc4[nH]cc(Cl)c4c3)cc2n1C[C@H]1COCCO1` [Example 41, 6-(3-Chloro-1H-pyrrolo[2,3-b]pyridin-5-yl)-1-[(2S)-1,4-dioxan-2-ylmethyl]-1,3-dihydro-imidazo[4,5-b]pyridin-2-one]: in experiment [1], the IC50 was less than 50 nM. In experiment [2], the GI50 was less than 3000 nM.

`Cc1nc2[nH]c(=O)n(C[C@H]3COCCO3)c2cc1-c1cnc2[nH]cc(C)c2c1` [Example 47, 1-[(2S)-1,4-Dioxan-2-ylmethyl]-5-methyl-6-(3-methyl-1H-pyrrolo[2,3-b]pyridin-5-yl)-1,3-dihydro-imidazo[4,5-b]pyridin-2-one]: the IC50 in experiment [1] is less than 50 nM. Moreover, the GI50 in experiment [2] is less than 3000 nM.

For `CC(=O)N1CCN(CCn2c(=O)[nH]c3ncc(-c4cnc5[nH]ccc5c4)cc32)CC1` [Example 59, 1-[2-(4-Acetylpiperazin-1-yl)ethyl]-6-(1H-pyrrolo[2,3-b]pyridin-5-yl)-1,3-dihydro-2H-imidazo[4,5-b]pyridin-2-one], in experiment [1], the IC50 was less than 50 nM. Further, the GI50 in experiment [2] was 3000 to 25000 nM.

The record behind these values is patent US8436012B2, “Imidazopyridin-2-one derivatives” (Daiichi Sankyo Company, Limited, priority 2008, dated 2013).
